Tested on: HCT116 cells
Experiment: Total glutathione levels (GSH-Glo), HCT116
Assay type: cell-based
Experimental: Measurement of glutathione levels following treatment using three cell lines: BJAB, HCT116, and normal human lung fibroblasts (NHLF) were maintained in RPMI (Wisent), McCoy’s (Wisent) or FGM-2 (Lonza) medium, respectively. For total glutathione measurement, 5000 cells /well (BJAB or HCT116) or 10,000 cells/well (NHLF) were transferred to clear-bottom 96-well assay plates (Thermo Fisher) in a volume of 50 µL. Plates were incubated overnight at 37° C. in 5% CO2, in an unsealed plastic bag with damp paper. Test compound was serially diluted in medium plus 0.4% DMSO, and 50 µL/well of each dilution was transferred to the assay plate. Assay plates were incubated at 37° C. in 5% CO2 in unsealed plastic bag with damp paper for the indicated time. For total glutathione measurement, GSH-Glo™ reagent (Promega) was prepared by diluting provided Luciferin-NT (1:100), Glutathione S-Transferase (1:100), and DTT (1 mM final) to GSH-Glo™ Reaction buffer, and 100 µL was added to assay plates, followed by 30 min incubation at room temperature, and then 100 µL Luciferin Detection Reagent was added. […] Luminescence was measured using Tecan Infinite 200Pro.
Effect on Glutathione levels: BJAB and HCT116 cells were maintained in RPMI medium (Wisent) or McCoy’s medium (Wisent), respectively. […] Total glutathione levels were determined according to the procedure described above.

CC1=CC(=O)c2ccccc2C1=O [menadione, Menadione]
glutathione levels after treatment (HCT116, FIG. 3): reduction in glutathione levels
glutathione levels in the presence or absence of N-acetyl cysteine (HCT116, with or without N-acetyl cysteine, FIG. 3): N-acetyl cysteine in the media prevents the reduction of glutathione
